These results are taken from patent publication US20240384311A1, “POLYHYDROXYALKANOATES AND METHODS OF MAKING THEREOF” (The Board of Trustees of the Leland Stanford Junior …, priority 2021, published 2024).

Read-outs that look alike come from different tables or passages of the source.

What all share (type): cell-based
Series [1] has as its system Cupriavidus necator H16 ΔphaC1 hadA-phaC1437. Conditions: shake-flask, 30° C., determined from 20 mM down in steps of 5 mM until acceptable growth. How it is done: (§1) Liquid cultures under heterotrophic conditions were conducted in 500 mL vented, baffled shake-flasks (WHEATON® Erlenmeyer Flasks with DuoCap®. DWK Life Sciences), incubated with shaking at 180 rpm on an innova 2300 platform shaker (New Brunswick Scientific) at 30° C. For feeding experiments, precultures of the engineered C. necator strains were inoculated in liquid RB+kan (50 mL) from solid RB+kan and grown over-night. In the morning the medium was exchanged for MSM+kan, diluting the culture 1:2 (in 100 mL). In the afternoon the seed-culture was washed with MSM and again diluted 1:2 (in 200 mL) with MSM+kan+polymer-precursor and induced with arabinose (1 g/L, unless indicated otherwise) in the evening. OD was monitored accompanied by collection of supernatant samples.
(§2) In a PHA-negative knock-out mutant (ΔphaC1) of the type-strain ‘H16’, pct540 & phaC1437 and hadA & phaC1437 were expressed, respectively.
(§3) Toxicity limits of the respective hydroxy carbonic acids were determined outgoing from 20 mM down in steps of 5 mM until acceptable growth was obtained in shake-flask experiments at 30° C.
(§4) Cultivations conducted on minimal salt medium with 30 g/L fructose as carbon-source and 2 g/L ammonium chloride as nitrogen-source (limiting). Cultures were inoculated at an OD600 of ≈0.5-1.

Series [2] has as its system Cupriavidus necator H16 ΔphaC1 pct540-phaC1437. The note with it: for Concentration (maximum non-toxic concentration of hydroxyalkanoate): H16 ΔphaC1 pct540-phaC1437, shake-flask, 30° C., determined from 20 mM down in steps of 5 mM until acceptable growth; for final biomass: H16 ΔphaC1 pct540-phaC1437 cultivated with the hydroxyalkanoate at its listed concentration, 30 g/L fructose, 2 g/L ammonium chloride. How it is done:
as §1, §2, §3, §4

The subject of series [3] is Cupriavidus necator H16 wild-type. The experiment in a line: Shake-flask cultivation with externally supplied hydroxy carbonic acids (toxicity limit, growth), wild-type strain. Conditions: for final biomass: H16 wild-type cultivated with the hydroxyalkanoate at its listed concentration, 2 g/L ammonium chloride. How it is done:
as §1, §2, §3, §4

[4] abbreviates: H16 wild-type, shake-flask, 30° C., determined from 20 mM down in steps of 5 mM until acceptable growth, MSM, 30 g/L fructose.

On to `O=C(O)C(O)CCc1ccccc1` (centres unmarked) [2-hydroxy-4-phenylbutanoic acid], for which the “Concentration (maximum non-toxic concentration of hydroxyalkanoate)” value in series [1] is listed as 15 mM.
Take `O=C(O)CCO` [3-hydroxypropanoic acid]: the “Concentration (maximum non-toxic concentration of hydroxyalkanoate)” value in series [2], in series [1] and in series [3] (setting [4]) was 20 mM each time. In addition, the final biomass turned out to be 1.6 g/L in series [2] and 5.7 g/L in series [3] (30 g/L fructose).
For the compound `O=C(O)CCCO` [4-hydroxybutanoic acid], the “Concentration (maximum non-toxic concentration of hydroxyalkanoate)” value in series [2], in series [1] and in series [3] (setting [4]) was 20 mM in each case. For the same compound, the final biomass in series [2] was determined as 1.9 g/L; in series [3] (30 g/L fructose), 4.1 g/L.
In the case of `O=C(O)CCCCCO` [6-hydroxyhexanoic acid], the “Concentration (maximum non-toxic concentration of hydroxyalkanoate)” value in series [2], in series [1] and in series [3] (setting [4]) was “(<10 mM)” each time. In addition, the final biomass in series [2] is 1.5 g/L; in series [3] (30 g/L fructose) it was 3.5 g/L.
Regarding `O=C(O)/C=C/c1ccc(O)c(O)c1` [caffeic acid], the “Concentration (maximum non-toxic concentration of hydroxyalkanoate)” value in series [1] was 5 mM.
In the case of `O=C(O)CO` [glycolic acid], the results for the final biomass in series [2] and in series [3] (30 g/L fructose) were 1.4 g/L and 6.8 g/L, respectively.
On to `CC(O)C(=O)O` (centres unmarked) [lactic acid], for which the final biomass turned out to be 1.9 g/L in series [2] and 18.2 g/L in series [3] (30 g/L fructose). In addition, the “Concentration (maximum non-toxic concentration of hydroxyalkanoate)” value in series [3] was determined as 20 mM.
For the compound `O=C(O)C(O)c1ccccc1` (centres unmarked) [mandelic acid], the “Concentration (maximum non-toxic concentration of hydroxyalkanoate)” value in series [1] came out at 5 mM.
Regarding `O=C(O)/C=C/c1ccc(O)cc1` [para-coumaric acid], the “Concentration (maximum non-toxic concentration of hydroxyalkanoate)” value in series [1] was 5 mM.
The same measure, in the same setting: then `O=C(O)C(O)Cc1ccccc1` (centres unmarked) [phenyllactic acid], with 10 mM; and `O=C(O)CCc1ccc(O)cc1` [phloretic acid], with 5 mM.
